Reference: publication PMC3131558, “Plitidepsin Has a Safe Cardiac Profile: A Comprehensive Analysis” (Marine Drugs, 2011)

What was measured:
[1] = system: adult patients with advanced solid tumors or hematological malignancies; experiment: Multivariate logistic regression of variables associated with CAEs; assay type: in vivo, human; conditions: overall multivariate analysis
Excerpt: To avoid potential bias, candidate variables were explored by univariate analysis regardless of the relationship attributed to the CAE with plitidepsin by the investigators (related, unrelated or unknown). Univariate logistic regression was used to study the relationship between the occurrence of a CAE and categorical and continuous patient and disease characteristics, and other observed toxicities or laboratory abnormalities. Those variables found to be clinically relevant and/or statistically significant (or of borderline significance) in this analysis were further assessed as covariates in a multivariate analysis using logistic regression with stepwise variable selection and multiple correspondence analysis methods.

[2] = Population PK exposure (Cmax, AUC0-28day) by CAE category; assay type: in vivo, human; conditions: whole blood, simulated, mean (SD)
Purkinje fibers = conditions: preclinical, in vitro; cited from earlier work
Excerpt: (§1) Plitidepsin, a cyclic depsipeptide of marine origin, is an investigational drug currently in clinical development as a single agent as well as in combination with other anticancer agents for the treatment of different solid tumors and hematological malignancies. […] CAE ...

dog = conditions: preclinical; cited from earlier work
Excerpt: as §1

[3] = system: guinea pig Langendorff preparation; conditions: exploratory study; cited from earlier work
Excerpt: as §1

HERG = conditions: preclinical, in vitro; cited from earlier work
Excerpt: as §1

[4] = system: human malignant cell lines; conditions: in vitro and in vivo, at nanomolar concentration ranges; cited from earlier work
Excerpt: Aplidin® (plitidepsin) is a cyclic depsipeptide originally isolated from the Mediterranean tunicate Aplidium albicans and currently produced by chemical synthesis. Plitidepsin has been proven to be active against several human malignant cell lines both in vitro and in vivo at nanomolar concentration ranges.

[5] = Population PK exposure (Cmax, AUC0-28day) by CAE category; assay type: in vivo, human; conditions: whole blood, mean (SD)
Description: Pharmacokinetic (PK) data available from individual clinical trials (four phase I studies and nine phase II studies; see details in Table 1) and/or simulated data using population PK analyses were correlated with the occurrence of CAEs. In the individual studies, doses ranged from 0.13 to 8.00 mg/m^2, and were administered as 1 h or 24 h infusion weekly, 3 h or 24 h infusion bi-weekly, or 1 h infusion for 5 consecutive days every 3 weeks. To evaluate the potential relationship between blood plitidepsin concentrations and QTc and HR values, a total of 90 patients who had ECGs performed during treatment with plitidepsin and PK data during first infusion were analyzed. The plitidepsin concentration at the time when the ECG had been obtained was calculated using the whole blood plitidepsin concentration at the ECG times in which they were simulated taking the individual Bayesian PK parameters of the final population PK model and considering the real treatment history of each patient. In total, 411 patients and 5585 plitidepsin concentration measurements (including 2900 blood and 2685 plasma concentrations) were pooled in the population PK analysis. An open, 3-compartment disposition model with linear elimination and linear distribution from the central compartment to peripheral compartments was used to describe the PK of plitidepsin in plasma. Between and within subject variabilities were assumed to be log-normally distributed. PK exposure parameters (maximum concentration in plasma (Cmax) and area under the curve (AUC) from day 0 to day 28) and other dose-independent PK parameters (clearance, half-life, etc.) were used to evaluate the relationship between patient PK characteristics and the appearance of CAEs. For the statistical analysis of the relationship between the exposure parameters and the development or not of a CAE, a logistic regression model was used to analyze the incidence of the event.

[6] = Other rhythm abnormalities (n = 10)

## plitidepsin
[1]; p = 0.0017
  OR for CAE: Tumor type, Prostate or pancreatic cancer: 4.217
[1]; p = 0.0072
  OR for CAE: Cardiac risk and relevant concomitant medication at baseline, Presence: 3.034
[1]; p = 0.0095
  OR for CAE: Hypokalemia (worst per patient), Grade ≥ 2: 3.851
[1]; p = 0.0140
  OR for CAE: Myalgia (at baseline), Presence: 5.015
[1]; p = 0.0208
  OR for CAE: Hemoglobin (worst per patient), <10 g/dL: 2.195
[2]; Cardiac Adverse Event (n = 36)
  AUC0–28day: 3236 (2955) h·ng/mL
  Cmax: 61.0 (27.9) ng/mL
[2]; Irregular supraventricular tachycardia (n = 12)
  Cmax: 63.7 (34.6) ng/mL
[2]; Myocardial Injury (n = 11)
  AUC0–28day: 4077 (3653) h·ng/mL
  Cmax: 69.5 (28.2) ng/mL
[2]; Other myocardial injury (n = 4)
  Cmax: 64.7 (30.6) ng/mL
[2]; [6]
  AUC0–28day: 2064 (1449) h·ng/mL
  Cmax: 56.8 (26.2) ng/mL
[2]; Possible ischemic related (n = 7)
  Cmax: 72.2 (28.8) ng/mL
[2]; Regular supraventricular tachycardia (n = 6)
  Cmax: 57.2 (23.1) ng/mL
[2]; Rhythm Abnormalities (n = 25)
  Cmax: 61.5 (29.8) ng/mL
Purkinje fibers
  Cardiotoxic profile in study using Purkinje fibers: did not show a cardiotoxic profile
dog
  Cardiotoxic profile in in vivo study in the dog: did not show a cardiotoxic profile
[3]
  Cardiac effects of escalating doses in guinea pig Langendorff preparation: did not show a cardiotoxic profile
HERG
  Cardiotoxic profile in HERG assay: did not show a cardiotoxic profile
[4]
  Activity against several human malignant cell lines: active
[5]; Irregular supraventricular tachycardia (n = 12), simulated
  AUC0–28day: 3197 (3640) h·ng/mL
[5]; Miscellaneous Cardiac Adverse Event (n = 7), simulated
  AUC0–28day: 2645 (1672) h·ng/mL
[5]; No Cardiac adverse Event (n = 375), simulated from population PK model
  AUC0–28day: 3374 (4336) h·ng/mL
[5]; Other myocardial injury (n = 4), simulated
  AUC0–28day: 4791 (6136) h·ng/mL
[5]; Possible ischemic related (n = 7), simulated
  AUC0–28day: 3668 (1696) h·ng/mL
[5]; Regular supraventricular tachycardia (n = 6), simulated
  AUC0–28day: 5277 (3997) h·ng/mL
[5]; Rhythm Abnormalities (n = 25), simulated
  AUC0–28day: 3435 (3372) h·ng/mL
